Source: US12569437B2, “Disease-site-specific liposomal formulation” (Osaka University, priority 2017, dated 2026)
Marks after values point to notes of the source that are not given here.

What was measured:
Type in all cases: in vivo
[1] = Body weight and heart weight in rat myocardial ischemia model
Procedure: (§1) Dissection was performed after the completion of the echocardiography at day 14 after the administration of the test substance. For dissection, all of the blood was collected from the abdominal aorta, and the rats were euthanized under isoflurane anesthesia; thereafter, the heart was removed and weighed. After measuring the heart weight, the infarct area, including the left and right ventricles, was divided into three parts along the short axis.

[2] = tested on: spontaneous dilated cardiomyopathy (J2N-k) hamster model; assay: Echocardiography (EF %, % FS) in spontaneous dilated cardiomyopathy hamsters; conditions: for % FS Pre / EF % Pre: at grouping; for % FS 4 W / EF % 4 W: week 4; for % FS 8 W / EF % 8 W: week 8
Procedure: Improvement in the DDS cardiac function in the spontaneous dilated cardiomyopathy (J2N-k) hamster model by intermittent intravenous administration of Formulation 25 and compound (A) (ONO-1301) once every two weeks was evaluated by comparing the left ventricular ejection fraction (hereinafter referred to as “EF %”), left ventricular fractional shortening (hereinafter referred to as “% FS”), and histological evaluation, based on echocardiography, taken as indices. As a positive control, a group in which compound (A) (ONO-1301) was repeatedly orally administered twice daily was created.
As a test substance, Formulation 25 was used by suspending and diluting with physiological saline. Compound (A) (ONO-1301) as a control was used by dissolving in an equivalent amount of aqueous NaOH, and diluting with physiological saline. For groups of oral administration of compound (A) (ONO-1301), administration was performed as a suspension in a 0.5% CMC-Na aqueous solution.
The spontaneous dilated cardiomyopathy (J2N-k) male hamsters, 20 weeks old at the start of administration, Japan SLC, Inc., were administered with the test substances for 8 weeks, and used for comparison.
Animals arrived at the age of 18 weeks were subjected to a 2-week quarantine/acclimation period, and then to the test at the time of grouping (test start date) at the age of 20 weeks. Thereafter, tests were conducted 4 and 8 weeks after the test start date, and dissection was performed 8 weeks after the test start date.
Echocardiography was performed at the time of grouping, and at week 4 and week 8 after the start of administration. The measurement was performed 3 times for each individual, and the average value of the measured data was referred to as the measurement results.

[3] = tested on: spontaneous dilated cardiomyopathy (J2N-k) hamster model; assay: Left ventricular wall thickness and area in short-axis sections of removed heart; conditions: week 8; for Left ventricle wall thickness (mm) Anterior / Left ventricle wall thickness (mm) Lateral / Left ventricle wall thickness (mm) Posterior / Left ventricle wall thickness (mm) Septum: middle section
Procedure: Dissection was performed as follows. After all of the blood was collected from the abdominal aorta, and the hamsters were euthanized under isoflurane anesthesia, the heart and lungs were removed and weighed. After the weights thereof were measured, the removed parts, including the left and right ventricles, were divided into three parts; i.e., apical, middle, and basal parts, at intervals of about 2 mm along the short axis.
When removed, the heart, including the left and right ventricles, was divided into three parts; i.e., apical, middle, and basal parts, at intervals of about 2 mm along the short axis. Among them, one section of the middle part was photographed, and the wall thickness at the anterior, lateral, posterior, and septum parts, and the left ventricular area were measured using image-editing software. For the wall thickness of the left ventricle, image-editing software was used, the number of pixels in the scale area of 1 mm^2 on the photograph was obtained, and the outer diameter and inner diameter of the entire left ventricle wall were traced to obtain each number of pixels to thus calculate the left ventricular area by ((the number of pixels of the outer diameter−the number of pixels of the inner diameter)/1 mm^2). Thereafter, the wall thickness of each portion was measured.
The section was divided into three parts; i.e., apical, middle, and basal areas, at intervals of about 2 mm. Thereafter, using one section on the middle side, the wall thickness at the anterior, lateral, posterior, and septum parts, and the left ventricular area were measured. For the wall thickness of the left ventricle, image-editing software was used, the number of pixels in the scale area of 1 mm^2 on the photograph was obtained, and the outer diameter and inner diameter of the entire left ventricle wall were traced to obtain each number of pixels to thus calculate the left ventricular wall area by ((the number of pixels of the outer diameter−the number of pixels of the inner diameter)/1 mm^2). Thereafter, the wall thickness of each portion was measured.

[4] = tested on: rat model of ischemia by complete coronary artery ligation; assay: Infarct area evaluation in rat myocardial ischemia model; conditions: 3.0 mg/kg single i.v., day 14
Procedure: as §1
(§2) For the sections, the apical portion was removed, and the middle area was sectioned into two parts at an interval of about 2 mm. Thereafter, the infarct area of the two sections on the apical and basal sides was measured. The infarct area was evaluated based on the ratio of the infarct area to the entire left ventricular area, and the ratio of the length of the normal area or the infarct area to the left ventricular outer diameter.
[…]

[5] = 3.0 mg/kg intravenous once/2 weeks

SMILES: O=C(O)COc1cccc2c1CCC=C2CCO/N=C(\c1ccccc1)c1cccnc1 [Compound (A), ({5-[2-({[(1E)-phenyl(pyridin-3-yl)methylene]amino}oxy)ethyl]-7,8-dihydronaphthalen-1-yl}oxy)acetic acid]
- Body weight (g) At dissection ([1]; 3.0 mg/kg single i.v., day 14): 406.7 ± 37.4 g
- Body weight (g) Before drug administration ([1]; group 3.0 mg/kg single i.v.): 325.1 ± 22.3 g
- Body weight (g) Before preparation of AMI ([1]; group 3.0 mg/kg single i.v.): 339.7 ± 13.6 g
- % FS Pre [2, 5]: 16.0 ± 2.1%
- EF % Pre [2, 5]: 38.8 ± 4.3%
- % FS 4 W [2, 5]: 16.1 ± 3.1%
- EF % 4 W [2, 5]: 35.7 ± 7.4%
- % FS 8 W [2, 5]: 12.3 ± 1.3^a %
- EF % 8 W [2, 5]: 30.8 ± 2.9^a %
- % FS Pre ([2]; 3.0 mg/kg p.o. twice/day): 18.2 ± 3.9%
- EF % Pre ([2]; 3.0 mg/kg p.o. twice/day): 43.0 ± 7.8%
- % FS 4 W ([2]; 3.0 mg/kg p.o. twice/day): 17.2 ± 7.2%
- EF % 4 W ([2]; 3.0 mg/kg p.o. twice/day): 40.4 ± 14.9%
- % FS 8 W ([2]; 3.0 mg/kg p.o. twice/day): 17.1 ± 4.5 %
- EF % 8 W ([2]; 3.0 mg/kg p.o. twice/day): 40.3 ± 9.2 %
- Left ventricular area (Middle part) (mm^2) ([3]; 3.0 mg/kg i.v. once/2 weeks): 23.9 ± 4.5 mm^2
- Left ventricle wall thickness (mm) Anterior [3, 5]: 1.1 ± 0.6 mm
- Left ventricle wall thickness (mm) Lateral [3, 5]: 1.2 ± 0.3 mm
- Left ventricle wall thickness (mm) Posterior [3, 5]: 1.2 ± 0.2 mm
- Left ventricle wall thickness (mm) Septum [3, 5]: 1.0 ± 0.3 mm
- Left ventricle wall thickness (mm) Anterior ([3]; 3.0 mg/kg p.o. twice/day): 1.4 ± 0.5 mm
- Left ventricle wall thickness (mm) Lateral ([3]; 3.0 mg/kg p.o. twice/day): 1.5 ± 0.2 mm
- Left ventricle wall thickness (mm) Posterior ([3]; 3.0 mg/kg p.o. twice/day): 1.2 ± 0.4 mm
- Left ventricle wall thickness (mm) Septum ([3]; 3.0 mg/kg p.o. twice/day): 1.5 ± 0.3 mm
- Left ventricular area (Middle part) (mm^2) ([3]; 3.0 mg/kg p.o. twice/day): 26.4 ± 4.3 mm^2
- Left ventricular area (mm^2) Infarct region ([4]; first of two sections): 18.1 ± 5.18 mm^2
- Left ventricular area (mm^2) Normal region ([4]; first of two sections): 31.1 ± 2.83 mm^2
- Left ventricular area Infarct rate (%) ([4]; first of two sections): 36 ± 8.0%
- Left ventricular outer diameter (cm) Infarct region ([4]; first of two sections): 1.5 ± 0.15 cm
- Left ventricular outer diameter (cm) Normal region ([4]; first of two sections): 1.7 ± 0.41 cm
- Left ventricular outer diameter Infarct rate (%) ([4]; first of two sections): 46 ± 7.5%
- Left ventricular area (mm^2) Infarct region ([4]; second of two sections): 14.6 ± 3.23 mm^2
- Left ventricular area (mm^2) Normal region ([4]; second of two sections): 41.0 ± 8.03 mm^2
- Left ventricular area Infarct rate (%) ([4]; second of two sections): 26 ± 2.2%
- Left ventricular outer diameter (cm) Infarct region ([4]; second of two sections): 1.2 ± 0.37 cm
- Left ventricular outer diameter (cm) Normal region ([4]; second of two sections): 2.3 ± 0.41 cm
- Left ventricular outer diameter Infarct rate (%) ([4]; second of two sections): 34 ± 10.2%
